# Experimental data reported in patent US8114408B2 (priority 2007, dated 2012).
# Where “and” joins values, the source holds several entries; their conditions need not be identical. Identical values can stand only once.
# System: antibodies to pathogenic Newcastle disease virus
# Format: binding, chicken
substance,measurement,value
3 (RRQRRF) [compound 3],number of positive chickens/number of tested chickens,1/5(0.81) and 0/5(0.70) and 4/4(2.45)
